IC50 and DC50 data for six molecules are collected here from US20230192700A1, “PYRAZOLOPYRAZINES ACTING ON CANCERS VIA INHIBITION OF CDK12” (Bayer Aktiengesellschaft, priority 2020, published 2023).

The subject of test [1] is CAL-120 human breast adenocarcinoma cells. The experiment in a line: Proliferation assay CAL-120 (crystal violet). It counts as cell-based. Conditions: Homo sapiens, CAL-120, 96 h, CAL-120 cells, 4 days, median, read-out: Prolif-CAL-120— IC50 - [mol/l] (median). The essentials:
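Cells seeded at 4,000/well in medium with 10% fetal calf serum, dosed after 24 h (0.01-10 micromol/L, 0.1% DMSO) and grown 4 days. Crystal violet staining read at 595 nm, normalised to zero-point plate (0%) and untreated cells (100%); IC50 by 4-parameter fit.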

The target in another test is T1, CYCLIN K (Homo sapiens, UniProt O75909).
T1 construct: endogenous in cells; host or cells: CAL-120 human breast cancer cells (DSMZ ACC 459)
The test is described as follows: CYCLIN K nuclear protein level: immunofluorescence/high content analysis in CAL-120 cells. It counts as cell-based. Particulars: 24 h, nuclear CCNK staining intensity, median, read-out: CYCLIN K degradation IF, DC50- [mol/l] (median). The essentials: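 CAL-120 cells were incubated with compound in dose-response for 24 h at 37° C, then fixed, immunostained for CYCLIN K and Hoechst-counterstained. Confocal imaging gave nuclear intensity. DC50 is the concentration giving 50% reduction of nuclear CCNK staining relative to DMSO and reference controls.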

T1 sequence (O75909 whole entry): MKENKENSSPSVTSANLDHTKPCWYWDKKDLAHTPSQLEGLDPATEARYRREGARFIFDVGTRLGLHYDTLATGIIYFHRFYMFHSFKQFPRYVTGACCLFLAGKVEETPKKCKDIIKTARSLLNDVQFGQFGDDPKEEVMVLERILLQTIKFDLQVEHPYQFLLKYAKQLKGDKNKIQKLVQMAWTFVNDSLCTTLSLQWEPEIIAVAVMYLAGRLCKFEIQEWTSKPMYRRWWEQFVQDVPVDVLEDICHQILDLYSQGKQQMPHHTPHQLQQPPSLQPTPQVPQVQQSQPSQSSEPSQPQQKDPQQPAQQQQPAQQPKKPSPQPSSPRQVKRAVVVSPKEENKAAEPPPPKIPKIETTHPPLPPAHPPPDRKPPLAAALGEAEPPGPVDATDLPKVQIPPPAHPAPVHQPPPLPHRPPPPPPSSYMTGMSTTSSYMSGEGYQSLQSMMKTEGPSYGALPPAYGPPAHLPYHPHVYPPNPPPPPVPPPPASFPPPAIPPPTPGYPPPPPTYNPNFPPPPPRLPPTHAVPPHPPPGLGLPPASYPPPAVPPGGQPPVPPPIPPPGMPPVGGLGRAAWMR
T1 sequence (Q9NYV4 whole entry partner): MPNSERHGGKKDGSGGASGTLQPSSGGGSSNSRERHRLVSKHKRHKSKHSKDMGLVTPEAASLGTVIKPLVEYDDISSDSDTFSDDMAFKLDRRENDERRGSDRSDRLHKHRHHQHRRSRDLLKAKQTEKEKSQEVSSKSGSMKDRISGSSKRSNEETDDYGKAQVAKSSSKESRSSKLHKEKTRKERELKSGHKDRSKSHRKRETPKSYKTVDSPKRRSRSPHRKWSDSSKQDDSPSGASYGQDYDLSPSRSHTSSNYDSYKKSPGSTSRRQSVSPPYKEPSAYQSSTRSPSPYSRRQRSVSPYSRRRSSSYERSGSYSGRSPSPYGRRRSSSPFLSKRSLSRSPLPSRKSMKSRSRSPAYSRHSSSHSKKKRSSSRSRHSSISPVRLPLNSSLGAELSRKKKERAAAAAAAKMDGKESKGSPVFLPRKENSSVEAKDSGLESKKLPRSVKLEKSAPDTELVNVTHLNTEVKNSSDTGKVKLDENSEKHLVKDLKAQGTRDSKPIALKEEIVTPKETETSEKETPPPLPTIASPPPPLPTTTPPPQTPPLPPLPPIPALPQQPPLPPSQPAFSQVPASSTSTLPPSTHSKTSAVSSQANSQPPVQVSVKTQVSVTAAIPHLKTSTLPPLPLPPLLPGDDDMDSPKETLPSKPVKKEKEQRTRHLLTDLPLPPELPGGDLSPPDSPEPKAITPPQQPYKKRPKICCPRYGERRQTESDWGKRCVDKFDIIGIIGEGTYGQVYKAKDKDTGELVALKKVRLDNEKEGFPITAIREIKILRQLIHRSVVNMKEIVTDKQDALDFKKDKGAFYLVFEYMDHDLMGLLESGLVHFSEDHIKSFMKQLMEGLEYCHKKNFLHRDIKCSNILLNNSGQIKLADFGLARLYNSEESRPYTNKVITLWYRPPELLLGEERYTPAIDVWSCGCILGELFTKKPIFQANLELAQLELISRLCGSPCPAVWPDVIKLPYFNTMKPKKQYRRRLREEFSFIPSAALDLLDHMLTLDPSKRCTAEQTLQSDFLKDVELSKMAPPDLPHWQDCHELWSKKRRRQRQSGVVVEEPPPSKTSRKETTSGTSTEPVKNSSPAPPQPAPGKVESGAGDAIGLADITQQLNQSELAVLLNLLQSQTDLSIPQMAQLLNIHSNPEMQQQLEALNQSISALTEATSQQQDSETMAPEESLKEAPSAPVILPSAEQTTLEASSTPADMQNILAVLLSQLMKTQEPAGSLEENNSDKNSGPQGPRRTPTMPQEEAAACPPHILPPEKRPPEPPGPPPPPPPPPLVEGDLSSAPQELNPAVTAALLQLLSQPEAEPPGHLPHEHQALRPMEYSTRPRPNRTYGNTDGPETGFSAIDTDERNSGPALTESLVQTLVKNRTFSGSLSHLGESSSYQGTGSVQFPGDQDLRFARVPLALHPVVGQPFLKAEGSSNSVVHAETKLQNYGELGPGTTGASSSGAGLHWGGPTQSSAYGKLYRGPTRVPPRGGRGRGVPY

As to `OC1(Cn2nc(NCc3nc4ccccc4[nH]3)c3ncc(C4CC4)nc32)CCC1` [Example 72, 1-[(3-{[(1H-benzimidazol-2-yl)methyl]amino}-6-cyclopropyl-1H-pyrazolo[3,4-b]pyrazin-1-yl)methyl]cyclobutan-1-ol], the IC50 in test [1] turned out to be 60.6 nM. In addition, the DC50 on CYCLIN K is 23.4 nM.
The matching figures for `OC1(Cn2nc(NCc3nc4ccccc4[nH]3)c3ncc(C4CC4)nc32)CCCC1` [Example 73, 1-[(3-{[(1H-benzimidazol-2-yl)methyl]amino}-6-cyclopropyl-1H-pyrazolo[3,4-b]pyrazin-1-yl)methyl]cyclopentan-1-ol]: 110 nM and 53.2 nM.
Turning to `OCC1(Cn2nc(NCc3nc4ccccc4[nH]3)c3ncc(C4CC4)nc32)CCC1` [Example 74, {1-[(3-{[(1H-benzimidazol-2-yl)methyl]amino}-6-cyclopropyl-1H-pyrazolo[3,4-b]pyrazin-1-yl)methyl]cyclobutyl}methanol], in test [1], the IC50 came out at 46.7 nM. Also, the DC50 on CYCLIN K was found to be 13.6 nM.
The matching figures for `c1ccc2[nH]c(CNc3nn(CC4CCC4)c4nc(C5CC5)cnc34)nc2c1` [Example 75, N-[(1H-benzimidazol-2-yl)methyl]-1-(cyclobutylmethyl)-6-cyclopropyl-1H-pyrazolo[3,4-b]pyrazin-3-amine]: 268 nM and 124 nM.
For `CC(C)(O)CCn1nc(NCc2nc3ccccc3[nH]2)c2ncc(C3CC3)nc21` [Example 76, 4-(3-{[(1H-benzimidazol-2-yl)methyl]amino}-6-cyclopropyl-1H-pyrazolo[3,4-b]pyrazin-1-yl)-2-methylbutan-2-ol], in that order: 55.7 nM and 8.11 nM.
In the case of `Cc1cnc2c(NCc3nc4ccccc4[nH]3)nn(C3CCN(C)CC3)c2n1` [Example 77, N-[(1H-benzimidazol-2-yl)methyl]-6-methyl-1-(1-methylpiperidin-4-yl)-1H-pyrazolo[3,4-b]pyrazin-3-amine], the IC50 in test [1] came to 1040 nM. Moreover, the DC50 on CYCLIN K came to 118 nM.
